Measured values: patent US10239869B2, “Sulfonamide compounds as voltage-gated sodium channel modulators” (LUPIN LIMITED, priority 2015, dated 2019)
Read-outs that look alike come from different tables or passages of the source.

Key:
Nav 1.7 = Nav 1.7 (Homo sapiens (Human), UniProt Q15858); assay: Inhibition of sodium channels, Red Membrane Potential Dye FLIPR assay, veratridine depolarization; type: cell-based; conditions: HEK-293 cells overexpressing the channel; read-out: Nav1.7 IC50
Nav 1.5 = Nav 1.5 (Homo sapiens (Human), UniProt Q14524); assay: as above; type: cell-based; conditions: HEK-293 cells overexpressing the channel; for inhibition at 10 µM: HEK-293 cells overexpressing Nav 1.5
[1] = read-out: Nav1.5 IC50 (bound given in μM)

Chain of Nav 1.7 (Q15858 whole entry): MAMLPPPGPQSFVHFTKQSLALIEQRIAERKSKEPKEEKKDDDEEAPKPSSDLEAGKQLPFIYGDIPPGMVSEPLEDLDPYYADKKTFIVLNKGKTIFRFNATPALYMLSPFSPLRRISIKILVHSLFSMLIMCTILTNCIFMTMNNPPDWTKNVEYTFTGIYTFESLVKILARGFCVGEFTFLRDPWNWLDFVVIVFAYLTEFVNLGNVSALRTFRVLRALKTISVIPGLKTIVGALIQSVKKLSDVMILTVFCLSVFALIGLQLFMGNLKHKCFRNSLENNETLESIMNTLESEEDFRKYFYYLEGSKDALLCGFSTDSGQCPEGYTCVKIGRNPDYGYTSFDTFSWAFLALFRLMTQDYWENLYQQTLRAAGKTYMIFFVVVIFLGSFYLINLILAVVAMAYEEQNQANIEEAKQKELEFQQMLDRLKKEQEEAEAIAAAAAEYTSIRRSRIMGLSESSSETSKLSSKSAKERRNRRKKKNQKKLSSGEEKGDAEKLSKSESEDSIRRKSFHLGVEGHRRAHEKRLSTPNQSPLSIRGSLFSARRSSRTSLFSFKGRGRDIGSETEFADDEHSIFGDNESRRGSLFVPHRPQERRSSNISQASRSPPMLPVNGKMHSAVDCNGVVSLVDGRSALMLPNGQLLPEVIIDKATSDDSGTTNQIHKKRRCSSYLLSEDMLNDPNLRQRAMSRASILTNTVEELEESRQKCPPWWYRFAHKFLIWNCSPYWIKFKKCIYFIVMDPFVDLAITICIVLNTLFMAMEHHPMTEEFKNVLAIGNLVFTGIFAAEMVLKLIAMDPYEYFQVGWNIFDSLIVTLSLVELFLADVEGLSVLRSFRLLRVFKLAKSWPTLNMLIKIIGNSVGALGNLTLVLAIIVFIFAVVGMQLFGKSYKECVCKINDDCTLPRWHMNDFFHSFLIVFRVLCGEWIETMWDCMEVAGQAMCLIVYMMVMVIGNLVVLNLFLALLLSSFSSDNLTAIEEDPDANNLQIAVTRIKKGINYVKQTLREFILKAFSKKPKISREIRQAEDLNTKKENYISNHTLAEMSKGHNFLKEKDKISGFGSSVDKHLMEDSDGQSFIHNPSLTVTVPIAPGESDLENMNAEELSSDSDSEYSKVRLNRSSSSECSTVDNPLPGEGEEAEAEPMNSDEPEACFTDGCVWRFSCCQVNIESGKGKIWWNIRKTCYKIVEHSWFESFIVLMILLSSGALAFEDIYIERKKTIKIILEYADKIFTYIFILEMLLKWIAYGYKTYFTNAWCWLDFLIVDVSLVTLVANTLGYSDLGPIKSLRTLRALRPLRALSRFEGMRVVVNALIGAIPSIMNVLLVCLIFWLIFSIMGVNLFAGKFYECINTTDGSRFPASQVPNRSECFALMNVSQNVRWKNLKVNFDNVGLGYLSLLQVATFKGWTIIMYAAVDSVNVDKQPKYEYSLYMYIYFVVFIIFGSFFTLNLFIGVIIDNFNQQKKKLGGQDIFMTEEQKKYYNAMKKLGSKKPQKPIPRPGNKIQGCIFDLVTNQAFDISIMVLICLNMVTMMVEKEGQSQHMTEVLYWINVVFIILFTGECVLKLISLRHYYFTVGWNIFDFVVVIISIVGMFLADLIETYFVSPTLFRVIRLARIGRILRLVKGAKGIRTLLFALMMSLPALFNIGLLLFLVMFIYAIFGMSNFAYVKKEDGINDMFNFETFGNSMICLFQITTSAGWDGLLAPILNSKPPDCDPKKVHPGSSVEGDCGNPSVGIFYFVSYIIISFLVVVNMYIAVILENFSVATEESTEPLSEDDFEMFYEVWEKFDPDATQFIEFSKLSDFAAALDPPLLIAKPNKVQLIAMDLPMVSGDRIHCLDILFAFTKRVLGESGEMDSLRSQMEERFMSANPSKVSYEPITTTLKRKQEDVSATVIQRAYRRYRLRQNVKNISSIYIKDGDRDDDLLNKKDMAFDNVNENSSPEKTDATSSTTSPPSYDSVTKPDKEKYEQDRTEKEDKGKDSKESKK
Chain of Nav 1.5 (Q14524 whole entry): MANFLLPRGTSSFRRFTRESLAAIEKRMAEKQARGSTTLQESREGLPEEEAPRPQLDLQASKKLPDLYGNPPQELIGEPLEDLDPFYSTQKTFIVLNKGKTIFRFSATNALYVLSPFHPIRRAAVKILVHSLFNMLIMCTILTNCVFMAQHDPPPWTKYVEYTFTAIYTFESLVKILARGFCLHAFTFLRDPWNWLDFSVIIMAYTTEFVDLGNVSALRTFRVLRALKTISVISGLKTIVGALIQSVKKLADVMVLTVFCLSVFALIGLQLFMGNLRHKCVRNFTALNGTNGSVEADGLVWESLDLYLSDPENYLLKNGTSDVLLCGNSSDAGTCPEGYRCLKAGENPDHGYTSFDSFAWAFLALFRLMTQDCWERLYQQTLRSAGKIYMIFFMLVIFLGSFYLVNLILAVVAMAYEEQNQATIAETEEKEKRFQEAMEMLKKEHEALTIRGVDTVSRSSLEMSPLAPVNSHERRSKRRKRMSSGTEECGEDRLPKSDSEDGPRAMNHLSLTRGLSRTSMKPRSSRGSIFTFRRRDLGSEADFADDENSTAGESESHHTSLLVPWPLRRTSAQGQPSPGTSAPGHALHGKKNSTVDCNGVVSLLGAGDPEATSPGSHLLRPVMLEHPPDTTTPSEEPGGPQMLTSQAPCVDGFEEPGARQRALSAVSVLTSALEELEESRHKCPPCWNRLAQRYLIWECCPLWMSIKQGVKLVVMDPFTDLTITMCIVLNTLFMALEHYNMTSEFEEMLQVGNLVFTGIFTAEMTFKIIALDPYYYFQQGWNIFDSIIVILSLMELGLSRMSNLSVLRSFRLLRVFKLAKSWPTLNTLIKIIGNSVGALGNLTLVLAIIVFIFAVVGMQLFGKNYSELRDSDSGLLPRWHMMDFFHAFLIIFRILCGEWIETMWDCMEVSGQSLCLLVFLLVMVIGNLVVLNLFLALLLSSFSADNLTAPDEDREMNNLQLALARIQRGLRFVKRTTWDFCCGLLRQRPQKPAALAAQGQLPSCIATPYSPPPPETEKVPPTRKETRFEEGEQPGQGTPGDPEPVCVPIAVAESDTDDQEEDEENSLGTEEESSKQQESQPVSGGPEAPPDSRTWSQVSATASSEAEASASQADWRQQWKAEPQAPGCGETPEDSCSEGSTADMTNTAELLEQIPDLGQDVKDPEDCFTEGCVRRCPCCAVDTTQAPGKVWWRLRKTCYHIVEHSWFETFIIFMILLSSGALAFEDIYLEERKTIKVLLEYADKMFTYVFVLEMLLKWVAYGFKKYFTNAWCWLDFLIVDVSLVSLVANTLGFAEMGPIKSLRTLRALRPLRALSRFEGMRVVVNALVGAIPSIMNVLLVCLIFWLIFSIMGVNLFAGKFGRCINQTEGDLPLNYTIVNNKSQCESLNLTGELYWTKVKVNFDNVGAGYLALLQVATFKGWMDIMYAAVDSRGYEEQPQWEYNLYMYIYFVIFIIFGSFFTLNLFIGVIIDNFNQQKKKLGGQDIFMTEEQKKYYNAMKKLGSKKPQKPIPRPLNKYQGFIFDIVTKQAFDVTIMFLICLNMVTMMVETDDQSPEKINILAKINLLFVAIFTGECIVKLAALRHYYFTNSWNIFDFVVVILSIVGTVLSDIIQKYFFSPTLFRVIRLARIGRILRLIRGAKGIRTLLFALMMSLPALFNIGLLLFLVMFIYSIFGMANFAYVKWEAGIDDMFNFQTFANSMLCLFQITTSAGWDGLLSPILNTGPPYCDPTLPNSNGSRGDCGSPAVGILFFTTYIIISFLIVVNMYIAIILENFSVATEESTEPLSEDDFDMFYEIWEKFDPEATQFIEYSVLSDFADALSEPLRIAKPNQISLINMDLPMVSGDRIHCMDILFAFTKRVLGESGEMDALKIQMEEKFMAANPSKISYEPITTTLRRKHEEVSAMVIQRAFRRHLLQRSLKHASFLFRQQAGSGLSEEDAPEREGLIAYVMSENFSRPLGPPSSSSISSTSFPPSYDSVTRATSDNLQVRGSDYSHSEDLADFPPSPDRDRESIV

IC50 (Nav 1.7) [nM]	Compound	inhibition at 10 µM (Nav 1.5) [%]	IC50 (Nav 1.5; read-out: Nav1.5 IC50) [µM]	IC50 (Nav 1.5; [1]) [µM]
4	O=S(=O)(Nc1ncccn1)c1ccc2c(c1)OCC[C@@H]2c1ccc(C(F)(F)F)cc1-c1nccs1 (racemic) [Example 93, (R/S)—N-(pyrimidin-2-yl)-4-(2-(thiazol-2-yl)-4-(trifluoromethyl)phenyl)chroman-7-sulfonamide]	56		
3	O=S(=O)(Nc1ccncn1)c1ccc2c(c1)OCC[C@@H]2c1ccc(C(F)(F)F)cc1-c1nccs1 (racemic) [Example 94, (R/S)—N-(pyrimidin-4-yl)-4-(2-(thiazol-2-yl)-4-(trifluoromethyl)phenyl)chroman-7-sulfonamide]	51		
11	O=S(=O)(Nc1cccnn1)c1ccc2c(c1)OCC[C@@H]2c1ccc(C(F)(F)F)cc1-c1nccs1 (racemic) [Example 95, (R/S)—N-(pyridazin-3-yl)-4-(2-(thiazol-2-yl)-4-(trifluoromethyl)phenyl)chroman-7-sulfonamide]	74		
8	O=S(=O)(Nc1cccc(F)n1)c1ccc2c(c1)OCC[C@@H]2c1ccc(C(F)(F)F)cc1-c1nccs1 (racemic) [Example 96, (R/S)—N-(6-fluoropyridin-2-yl)-4-(2-(thiazol-2-yl)-4-(trifluoromethyl)phenyl)chroman-7-sulfonamide]	70		
10	CCOc1ccc(-c2cc(C(F)(F)F)ccc2[C@H]2CCOc3cc(S(=O)(=O)Nc4ncccn4)ccc32)cn1 (racemic) [Example 103, (R/S)-4-(2-(6-ethoxypyridin-3-yl)-4-(trifluoromethyl)phenyl)-N-(pyrimidin-2-yl)chroman-7-sulfonamide]		0.932	
184	O=S(=O)(Nc1ncccn1)c1ccc2c(c1)OCC[C@@H]2c1ccc(C(F)(F)F)cc1Cl (racemic) [Example 104, (S/R)-4-(2-Chloro-4-(trifluoromethyl)phenyl)-N-(pyrimidin-2-yl)chroman-7-sulfonamide]			> 10
1510	O=S(=O)(Nc1ncc(F)cn1)c1ccc2c(c1)OCC[C@@H]2c1ccc(C(F)(F)F)cc1Cl (racemic) [Example 105, (S/R)-4-(2-Chloro-4-(trifluoromethyl)phenyl)-N-(5-fluoropyrimidin-2-yl)chroman-7-sulfonamide]			> 10
147	O=S(=O)(Nc1ccncn1)c1ccc2c(c1)OCC[C@@H]2c1ccc(C(F)(F)F)cc1Cl (racemic) [Example 106, (S/R)-4-(2-Chloro-4-(trifluoromethyl)phenyl)-N-(pyrimidin-4-yl)chroman-7-sulfonamide]			> 10
229	O=S(=O)(Nc1cccnn1)c1ccc2c(c1)OCC[C@@H]2c1ccc(C(F)(F)F)cc1Cl (racemic) [Example 107, (S/R)-4-(2-Chloro-4-(trifluoromethyl)phenyl)-N-(pyridazin-3-yl)chroman-7-sulfonamide]			> 10
57	O=S(=O)(Nc1cccc(F)n1)c1ccc2c(c1)OCC[C@@H]2c1ccc(C(F)(F)F)cc1Cl (racemic) [Example 108, (S/R)-4-(2-chloro-4-(trifluoromethyl)phenyl)-N-(6-fluoropyridin-2-yl)chroman-7-sulfonamide]		2.18	
41	O=C1CCCN1c1cc(C(F)(F)F)ccc1[C@H]1CCOc2cc(S(=O)(=O)Nc3ncccn3)ccc21 (racemic) [Example 115, (R/S)-4-(2-(2-oxopyrrolidin-1-yl)-4-(trifluoromethyl)phenyl)-N-(pyrimidin-2-yl)chroman-7-sulfonamide]			> 10

Compound	IC50 (Nav 1.7) [nM]	inhibition at 10 µM (Nav 1.5) [%]	IC50 (Nav 1.5; read-out: Nav1.5 IC50) [µM]	IC50 (Nav 1.5; [1]) [µM]
O=C(O)c1ccc(-c2cc(C(F)(F)F)ccc2[C@@H]2CCOc3cc(S(=O)(=O)Nc4ncccn4)ccc32)cc1 [Example-187, (S&R)-2′-(7-(N-(pyrimidin-2-yl)sulfamoyl)chroman-4-yl)-5′-(trifluoromethyl)-[1,1′-biphenyl]-4-carboxylic acid]	2600			
